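In this assay, cells in 96-well plates receive the compound at five concentrations for 48 hours. Endpoints are linearly interpolated between the surrounding concentrations. TGI is the concentration that stops growth completely.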
Experiments:
Assay in all cases: DTP human tumour cell line panel, 48 h
[1] = test system: DLD-1 colon
[2] = test system: RXF-631 renal
[3] = test system: XF 498 CNS
[4] = test system: HOP-18 NSCLC
[5] = test system: SNB-78 CNS

SMILES | TGI [1] | TGI [2] | TGI [3] | TGI [4] | TGI [5]
CCN(CC)CCNc1ccc2nnn3c4ccccc4c(=O)c1c23 | 42.2 µM | 13.7 µM | 13.6 µM | – | –
O=C(c1ccccc1)c1c(CC(O)c2ccccc2)n(C(=O)c2ccccc2)c2ccccc12 (centres undefined) | > 100 µM | – | > 100 µM | – | –
Cc1c2c(ccc3ccccc32)c[n+]2ccccc12 | > 100 µM | – | – | – | –
COc1ccc(C[C@H](N)C(=O)N2C[C@@H](CO)C[C@@H](n3cnc4c(N(C)C)ncnc43)C2)cc1 | > 100 µM | – | – | > 100 µM | > 100 µM

From PubChem BioAssay (NCI)
